# Results published in patent US10729693B2, “Compositions and methods for the treatment of endometriosis” (PONCE MEDICAL SCHOOL FOUNDATION, INC., priority 2018, dated 2020).
# System: anxiety behaviors
# Assay: Anxiety behaviors: open field and elevated zero maze
# Format: in vivo, rat
# Settings: day 60; compared to sham group
# Protocol: One day before behavioral assessment and sacrifice a subset of rats (6 vehicle and 6 antalarmin) were subjected to an acute episode of swim stress of 10 min and compared to no stress controls to assess how rats respond to acute activation of the HPA axis. For this, animals were placed in a Plexiglas tank for 10 min in water at 25° C. Rats were towel dried and kept in warm cage after swim until fur dried. The next day, two behavioral tasks were used to assess anxiety behaviors. The open field test is used to quantify exploratory and locomotor activity of a rodent in an open arena. The apparatus used was a square wood arena (91×91×38 cm) with overhead light illumination and video monitoring to record animal activity using Any-Maze software (Stoelting, Wood Dale, Ill.). The following behaviors were quantified during 20 minutes: 1) total distance moved, 2) time spent moving, 3) time spent in the center of the arena, 4) time spent near the walls of the arena (defined by the 15 cm of floor arena closest to the walls) and 5) total fecal pellets. The more time the animal spends in the center of the arena compared to the space adjacent to the wall is considered as having less anxiety. At the end of the testing period, animals were returned to the home cage and after a 5-min break were tested in the elevated zero-maze.
# The elevated zero-maze is very similar to the more traditional elevated plus maze test, with the advantage of not having a neutral (undefined) zone in the middle. The apparatus consisted of a circle with an arm width of 10 cm and elevated 40 cm from floor. […] Rats were allowed to run the maze for 5 consecutive minutes and recorded using the Any-Maze software (Stoelting, Wood Dale, Ill.). The following parameters were analyzed by the Any-Maze program: 1) total distance travelled in the maze, 2) time spent in the open/closed arms and 2) number of entries made by the rodent onto the open/closed arms. When 60% of the animal body entered the arm, the program counted is as an entry. In addition, total fecal pellets in the maze were quantified. […]
compound,measurement,value
CCCCN(CC)c1nc(C)nc2c1c(C)c(C)n2-c1c(C)cc(C)cc1C [antalarmin],open field: total distance traveled,significantly lower
same,zero maze: locomotor activity,higher locomotor activity
same,zero maze: time in the open arms,strong trend for both groups of rats with endometriosis to spend less time in the open arms
